Marks after values point to notes of the source that are not given here.
Experiments:
[1] = Animal assay (I): high fat diet rats, weight gain and body fat; assay type: in vivo, Sprague-Dawley (SD) male rats; conditions: positive control group
Experimental: Sprague-Dawley (SD) male rats were used in this example. There were six groups for test, respectively as a normal group, an obese group, a positive control group (Orlistat®, 18.6 mg/kg BW), a low-dose experimental group (the formulation LB004: 223.2 mg/kg BW), a medium-dose experimental group (the formulation LB004: 446.4 mg/kg BW), and a high-dose experimental group (the formulation LB004: 892.8 mg/kg BW). Ten male rats were used in each group. During the 8-week experiment period, high fat diets were fed ad libitum for all groups except […]. Three formulation LB004 doses of the present invention were orally given simultaneously during the experiment and body weight loss and lipid mass reduction were evaluated. Bodyweight, food and water intake were recorded weekly. In the end of the test, total amount of fat and the percentage of fat dry weight were determined.
In the end of the experiment, the rats were sacrificed. Epididymis fat, perinephric fat, and mesenteric fat were weighted and the total amount of internal fat was calculated. In addition, the fat of groin and the extraperitoneal fat were weighted to calculate the amount of subcutaneous fat.
In addition, the wet weights of rat bodies were weighed. Then the rat bodies were dried in an oven at 105° C. to constant dry weight for measuring dry weights of the rat bodies. The rat bodies were pulverized by uniform homogenizer. The percentage of dry weight and the amount of crude fat of whole animals is calculated by diethyl ether extraction at 2 to 3 different sampling points.

[2] = Animal assay (IV): high fat diet mice, 8 weeks, weight gain and fat; assay type: in vivo, B6 strain male mice
Experimental: B6 strain male mice were used in this example. There were five groups for test, respectively as the obese group, the resveratrol (61.5 mg/kg BW), the green tea extract (123 mg/kg BW), and experimental groups such as the formulation LB001 (338.25 mg/kg BW) and the formulation LB0008 (326 mg/kg BW). Five male animals were used in each group. During the test, high fat diets and experimental substrates were fed for all groups to induce obesity during eight weeks. In the experimental duration, weight and the average daily intake were recorded. In the end of the experiment, the mice were sacrificed to weight epididymis fat, perinephric fat, and mesenteric fat and calculate the total amount of visceral fat; groin fat and extra-abdominal fat were weighed to calculate the amount of subcutaneous fat.

SMILES | fat (dry weight) ([1]; 18.6 mg/kg B.W., 8 weeks) | total fat mass ([1]; 18.6 mg/kg B.W., 8 weeks) | total weight gain ([1]; 18.6 mg/kg B.W., 8 weeks) | body fat decrease compared with the obese group ([1]; 18.6 mg/kg BW) [%] | body weight decline compared with the obese group ([1]; 18.6 mg/kg BW) [%] | decrease of percentage of fat dry weight compared with the obese group ([1]; 18.6 mg/kg BW) [%] | visceral fat, subcutaneous fat, and total fat mass compared with the obese group ([2]; resveratrol 61.5 mg/kg BW, FIG. 10) | inhibitory effect on weight gain ([2]; resveratrol alone 61.5 mg/kg BW, FIG. 9)
CCCCCCCCCCC[C@@H](C[C@@H]1OC(=O)[C@H]1CCCCCC)OC(=O)[C@H](CC(C)C)NC=O [Orlistat®, Orlistat] | 31.6 ± 6.0^a % | 38.1 ± 8.8^c g | 240.1 ± 24.4^c g | 23.9 | 12.0 | 17.4 | – | –
Oc1ccc(C=Cc2cc(O)cc(O)c2)cc1 [resveratrol] | – | – | – | – | – | – | no statistical difference | poor and had no statistical difference from the obese group
